# In patent US12252524B2, “GIP/GLP1 co-agonist compounds” (Eli Lilly and Company, priority 2018, dated 2025):
# Where two headings read alike, the source gives them in different places. Numbered stars: 1 amine (or outer) side, 2 acyl side, 3 side chain; on linkers, the order of the positions; unused ones are H or OH. Square brackets hold non-standard residues; d marks the D form. Side chains are listed from the residue outwards. Peptide text beside a SMILES is read from it. * marks the point of attachment. C20 diacid = O=C(O)CCCCCCCCCCCCCCCCCCC(=O)*; γGlu = O=C(O)[C@H](CCC(=O)[*:2])N[*:1]; αMeY = C[C@](N)(Cc1ccc(O)cc1)C(=O)O; αMeF = C[C@](N)(Cc1ccccc1)C(=O)O; αMeL = CC(C)C[C@](C)(N)C(=O)O; Orn = NCCC[C@H](N)C(=O)O; Dab = NCC[C@H](N)C(=O)O; Dap = NC[C@H](N)C(=O)O; AEEA = NCCOCCOCC(=O)O; Aib = CC(C)(N)C(=O)O
# How the values were obtained:
# [1] = biological target: human GLP-1 receptor (GLP-1R) (Homo sapiens, UniProt P43220); assay: cAMP pharmacological functional assay in presence of casein, hGLP-1R; assay type: cell-based
# human GLP-1 receptor (GLP-1R), sequence (P43220 24-463): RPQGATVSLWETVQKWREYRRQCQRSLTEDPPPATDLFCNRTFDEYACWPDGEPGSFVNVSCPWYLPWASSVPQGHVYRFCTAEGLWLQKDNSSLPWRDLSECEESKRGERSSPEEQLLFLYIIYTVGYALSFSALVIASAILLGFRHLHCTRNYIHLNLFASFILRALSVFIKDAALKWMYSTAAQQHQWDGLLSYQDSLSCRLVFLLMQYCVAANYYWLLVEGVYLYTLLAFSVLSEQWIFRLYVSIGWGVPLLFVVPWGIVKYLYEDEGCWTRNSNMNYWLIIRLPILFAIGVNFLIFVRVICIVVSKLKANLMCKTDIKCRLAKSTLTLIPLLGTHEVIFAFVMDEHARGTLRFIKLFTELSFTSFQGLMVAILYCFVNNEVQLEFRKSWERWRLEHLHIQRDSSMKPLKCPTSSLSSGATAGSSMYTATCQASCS
# [2] = biological target: T1, gastric inhibitory peptide receptor (GIPR) (Homo sapiens, UniProt P48546); assay: cAMP pharmacological functional assay in presence of casein, hGIPR; assay type: cell-based
# T1 sequence (P48546 22-466): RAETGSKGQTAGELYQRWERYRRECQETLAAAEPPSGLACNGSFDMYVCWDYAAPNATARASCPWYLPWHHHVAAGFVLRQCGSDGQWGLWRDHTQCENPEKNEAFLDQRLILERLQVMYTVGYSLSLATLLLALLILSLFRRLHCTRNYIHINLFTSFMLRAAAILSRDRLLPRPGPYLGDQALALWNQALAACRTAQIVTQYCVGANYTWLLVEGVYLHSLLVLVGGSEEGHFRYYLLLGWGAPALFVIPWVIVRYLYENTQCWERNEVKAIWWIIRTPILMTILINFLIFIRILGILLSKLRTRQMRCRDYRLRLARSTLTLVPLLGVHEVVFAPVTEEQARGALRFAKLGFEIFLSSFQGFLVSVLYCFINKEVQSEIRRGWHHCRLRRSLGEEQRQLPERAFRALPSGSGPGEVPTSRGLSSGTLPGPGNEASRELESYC
# [3] = biological target: T2, human GLP-1R (Homo sapiens, UniProt P43220); assay: GLP-1R CHO cell β-arrestin recruitment assay; assay type: cell-based; set-up: host or cells: CHO-K1 PathHunter cells, assay-ready frozen; settings: for hGLP1R B-Arrestin2 % Top: normalized to GLP-1 maximum control
# T2 sequence (P43220 24-463): as the sequence (P43220 24-463) above
# How it was run: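 Peptide-induced β-arrestin-2 recruitment measured by enzyme-fragment complementation luminescence after 90 min at 37 °C plus 60 min detection at RT.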
# [4] = biological target: T2, human GLP-1R; assay: GLP-1R HEK293 cell membrane [35S]GTPγS binding assay; assay type: biochemical; set-up: expressed in transfected cells; host or cells: HEK293 cells expressing human GLP-1R; membranes
# How it was run: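 Agonist-driven Gαs activation read as [35S]GTPγS ([…]) binding to receptor-expressing HEK293 membranes, 30 min at room temperature, pH 7.4. Detection by anti-Gαs immunocapture on scintillation beads; EC50 derived from four-parameter logistic concentration-response fit.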
# [5] = HEK293 cells expressing hGLP-1R, 0.1% Casein, geometric mean, read-out: hGLP1R cAMP Rel EC50 nM (SEM, n)
# [6] = HEK293 cells expressing hGIPR, 0.1% Casein, geometric mean, read-out: hGIPR cAMP Rel EC50 nM (SEM, n)
# [7] = CHO-K1 cells, PathHunter β-arrestin-2 recruitment, 0.1% casein, read-out: hGLP1R B-Arrestin2 Rel EC50 uM (SEM, n)
# [8] = HEK293 cell membranes expressing human GLP-1R, [35S]GTPγS binding, read-out: hGLP1R GTPgS Rel EC50 nM (SEM, n)
Structure (SMILES),"EC50 [1, 5] [nM]","EC50 [2, 6] [nM]","EC50 [3, 7] [µM]",hGLP1R B-Arrestin2 % Top [3] [%],"EC50 [4, 8] [nM]",EC50 [1] [nM],EC50 [2] [nM],EC50 [3] [µM],EC50 [4] [nM]
CC[C@H](C)[C@H](NC(=O)[C@H](CC(C)C)NC(=O)[C@](C)(Cc1ccc(O)cc1)NC(=O)[C@H](CCC(=O)O)NC(=O)[C@@H](NC(=O)[C@H](Cc1ccccc1)NC(=O)[C@H](CCC(=O)O)NC(=O)C(C)(C)NC(=O)[C@H](CCC(N)=O)NC(=O)[C@H](C)NC(=O)[C@H](CCCCNC(=O)COCCOCCNC(=O)COCCOCCNC(=O)CC[C@H](NC(=O)CCCCCCCCCCCCCCCCCCC(=O)O)C(=O)O)NC(=O)[C@H](CCCCN)NC(=O)[C@H](CC(=O)O)NC(=O)[C@H](CC(C)C)NC(=O)[C@](C)(CC(C)C)NC(=O)[C@@H](NC(=O)[C@H](CO)NC(=O)[C@H](Cc1ccc(O)cc1)NC(=O)[C@H](CC(=O)O)NC(=O)[C@H](CO)NC(=O)[C@@H](NC(=O)[C@H](Cc1ccccc1)NC(=O)[C@@H](NC(=O)CNC(=O)[C@H](CCC(=O)O)NC(=O)C(C)(C)NC(=O)[C@H](N)Cc1ccc(O)cc1)[C@@H](C)O)[C@@H](C)O)[C@@H](C)CC)[C@@H](C)CC)C(=O)N[C@@H](CCC(=O)O)C(=O)NCC(=O)NCC(=O)N1CCC[C@H]1C(=O)N[C@@H](CO)C(=O)N[C@@H](CO)C(=O)NCC(=O)N[C@@H](C)C(=O)N1CCC[C@H]1C(=O)N1CCC[C@H]1C(=O)N1CCC[C@H]1C(=O)N[C@@H](CO)C(N)=O [Example 379] (H-[dY][Aib]EGTFTSDYSI[αMeL]LDKK([AEEA-AEEA-γGlu-C20 diacid])AQ[Aib]EFIE[αMeY]LIEGGPSSGAPPPS-NH2),0.238,0.079,0.0181,31.9,0.239,,,,
CC[C@H](C)[C@H](NC(=O)[C@H](CC(C)C)NC(=O)[C@](C)(Cc1ccc(O)cc1)NC(=O)[C@H](CCC(=O)O)NC(=O)[C@@H](NC(=O)[C@H](Cc1ccccc1)NC(=O)[C@H](CCC(=O)O)NC(=O)C(C)(C)NC(=O)[C@H](CCC(N)=O)NC(=O)[C@H](C)NC(=O)[C@H](CCCCNC(=O)COCCOCCNC(=O)COCCOCCNC(=O)CC[C@H](NC(=O)CCCCCCCCCCCCCCCCCCC(=O)O)C(=O)O)NC(=O)[C@H](CCCN)NC(=O)[C@H](CC(=O)O)NC(=O)[C@H](CC(C)C)NC(=O)[C@](C)(CC(C)C)NC(=O)[C@@H](NC(=O)[C@H](CO)NC(=O)[C@H](Cc1ccc(O)cc1)NC(=O)[C@H](CC(=O)O)NC(=O)[C@H](CO)NC(=O)[C@@H](NC(=O)[C@H](Cc1ccccc1)NC(=O)[C@@H](NC(=O)CNC(=O)[C@H](CCC(=O)O)NC(=O)C(C)(C)NC(=O)[C@H](N)Cc1ccc(O)cc1)[C@@H](C)O)[C@@H](C)O)[C@@H](C)CC)[C@@H](C)CC)C(=O)N[C@@H](CCC(=O)O)C(=O)NCC(=O)NCC(=O)N1CCC[C@H]1C(=O)N[C@@H](CO)C(=O)N[C@@H](CO)C(=O)NCC(=O)N[C@@H](C)C(=O)N1CCC[C@H]1C(=O)N1CCC[C@H]1C(=O)N1CCC[C@H]1C(=O)N[C@@H](CO)C(N)=O [Example 380] (H-[dY][Aib]EGTFTSDYSI[αMeL]LD[Orn]K([AEEA-AEEA-γGlu-C20 diacid])AQ[Aib]EFIE[αMeY]LIEGGPSSGAPPPS-NH2),0.236,0.142,0.0137,35,0.188,,,,
CC[C@H](C)[C@H](NC(=O)[C@H](CC(C)C)NC(=O)[C@H](Cc1ccc(O)cc1)NC(=O)[C@H](CCC(=O)O)NC(=O)[C@@H](NC(=O)[C@H](Cc1ccccc1)NC(=O)[C@H](C)NC(=O)C(C)(C)NC(=O)[C@H](CCC(N)=O)NC(=O)[C@H](C)NC(=O)[C@H](CCCCNC(=O)COCCOCCNC(=O)COCCOCCNC(=O)CC[C@H](NC(=O)CCCCCCCCCCCCCCCCCCC(=O)O)C(=O)O)NC(=O)[C@H](CCN)NC(=O)[C@H](CC(=O)O)NC(=O)[C@H](CC(C)C)NC(=O)[C@](C)(CC(C)C)NC(=O)[C@@H](NC(=O)[C@H](CO)NC(=O)[C@H](Cc1ccc(O)cc1)NC(=O)[C@H](CC(=O)O)NC(=O)[C@H](CO)NC(=O)[C@@H](NC(=O)[C@H](Cc1ccccc1)NC(=O)[C@@H](NC(=O)CNC(=O)[C@H](CCC(=O)O)NC(=O)C(C)(C)NC(=O)[C@H](N)Cc1ccc(O)cc1)[C@@H](C)O)[C@@H](C)O)[C@@H](C)CC)[C@@H](C)CC)C(=O)N[C@@H](C)C(=O)NCC(=O)NCC(=O)N1CCC[C@H]1C(=O)N[C@@H](CO)C(=O)N[C@@H](CO)C(=O)NCC(=O)N[C@@H](C)C(=O)N1CCC[C@H]1C(=O)N1CCC[C@H]1C(=O)N1CCC[C@H]1C(=O)N[C@@H](CO)C(N)=O [Example 347] (H-[dY][Aib]EGTFTSDYSI[αMeL]LD[Dab]K([AEEA-AEEA-γGlu-C20 diacid])AQ[Aib]AFIEYLIAGGPSSGAPPPS-NH2),0.102,0.0827,0.00542,24.6,0.759,,,,
CC[C@H](C)[C@H](NC(=O)[C@H](CC(C)C)NC(=O)[C@H](Cc1ccc(O)cc1)NC(=O)[C@H](CCC(=O)O)NC(=O)[C@@H](NC(=O)[C@H](Cc1ccccc1)NC(=O)[C@H](C)NC(=O)C(C)(C)NC(=O)[C@H](CCC(N)=O)NC(=O)[C@H](C)NC(=O)[C@H](CCCCNC(=O)COCCOCCNC(=O)COCCOCCNC(=O)CC[C@H](NC(=O)CCCCCCCCCCCCCCCCCCC(=O)O)C(=O)O)NC(=O)[C@H](CN)NC(=O)[C@H](CC(=O)O)NC(=O)[C@H](CC(C)C)NC(=O)[C@](C)(CC(C)C)NC(=O)[C@@H](NC(=O)[C@H](CO)NC(=O)[C@H](Cc1ccc(O)cc1)NC(=O)[C@H](CC(=O)O)NC(=O)[C@H](CO)NC(=O)[C@@H](NC(=O)[C@H](Cc1ccccc1)NC(=O)[C@@H](NC(=O)CNC(=O)[C@H](CCC(=O)O)NC(=O)C(C)(C)NC(=O)[C@H](N)Cc1ccc(O)cc1)[C@@H](C)O)[C@@H](C)O)[C@@H](C)CC)[C@@H](C)CC)C(=O)N[C@@H](C)C(=O)NCC(=O)NCC(=O)N1CCC[C@H]1C(=O)N[C@@H](CO)C(=O)N[C@@H](CO)C(=O)NCC(=O)N[C@@H](C)C(=O)N1CCC[C@H]1C(=O)N1CCC[C@H]1C(=O)N1CCC[C@H]1C(=O)N[C@@H](CO)C(N)=O [Example 348] (H-[dY][Aib]EGTFTSDYSI[αMeL]LD[Dap]K([AEEA-AEEA-γGlu-C20 diacid])AQ[Aib]AFIEYLIAGGPSSGAPPPS-NH2),0.113,0.193,0.00346,19.8,0.66,,,,
CC[C@H](C)[C@H](NC(=O)[C@H](CC(C)C)NC(=O)[C@H](Cc1ccc(O)cc1)NC(=O)[C@H](CCC(=O)O)NC(=O)[C@@H](NC(=O)[C@H](Cc1ccccc1)NC(=O)[C@H](CCC(=O)O)NC(=O)C(C)(C)NC(=O)[C@H](CCC(N)=O)NC(=O)[C@H](C)NC(=O)[C@H](CCCCNC(=O)COCCOCCNC(=O)COCCOCCNC(=O)CC[C@H](NC(=O)CCCCCCCCCCCCCCCCCCC(=O)O)C(=O)O)NC(=O)[C@H](CCCCN)NC(=O)[C@H](CC(=O)O)NC(=O)[C@H](CC(C)C)NC(=O)[C@](C)(CC(C)C)NC(=O)[C@@H](NC(=O)[C@H](CO)NC(=O)[C@H](Cc1ccc(O)cc1)NC(=O)[C@H](CC(=O)O)NC(=O)[C@H](CO)NC(=O)[C@@H](NC(=O)[C@](C)(Cc1ccccc1)NC(=O)[C@@H](NC(=O)CNC(=O)[C@H](CCC(=O)O)NC(=O)C(C)(C)NC(=O)[C@H](N)Cc1ccc(O)cc1)[C@@H](C)O)[C@@H](C)O)[C@@H](C)CC)[C@@H](C)CC)C(=O)N[C@@H](C)C(=O)NCC(=O)NCC(=O)N1CCC[C@H]1C(=O)N[C@@H](CO)C(=O)N[C@@H](CO)C(=O)NCC(=O)N[C@@H](C)C(=O)N1CCC[C@H]1C(=O)N1CCC[C@H]1C(=O)N1CCC[C@H]1C(=O)N[C@@H](CO)C(N)=O [Example 345] (H-[dY][Aib]EGT[αMeF]TSDYSI[αMeL]LDKK([AEEA-AEEA-γGlu-C20 diacid])AQ[Aib]EFIEYLIAGGPSSGAPPPS-NH2),,,,74.7,,0.035,0.0649,0.00308,0.684
